# Laboratory results reported in patent US20160220569A1, “CDK4/6 Inhibitor Dosage Formulations For The Protection Of Hematopoietic Stem And Progenitor Cells During Chemotherapy” (G1 Therapeutics, Inc., priority 2015, published 2016).
# Like-named read-outs stand apart in the source and are kept apart here.
# Test: 3-compartment model pharmacokinetic analysis, Cohorts 5 and 6
# Assay type: in vivo, human
# Details: for half-life: read-out: γ phase half-life averaged (converted)
# Text: The concentration-time profile is represented by a tri-exponential equation similar to the following: […]
# Where A, B, and C are the ‘macroconstants’ which are a function of the dose, volume of distribution and the ‘microconstants’ (K12, K21, K13, K31, and K10).
# Five of these parameters are rate constants and the 6th is the volume of distribution of the central compartment (V1).
# [1] = Cohort 5, 96 mg/m^2, 3-compartment primary parameter, subjects 1-6, Mean, Median, mean
compound,measurement,setting,value
"CN1CCN(c2ccc(Nc3ncc4cc5n(c4n3)C3(CCCCC3)CNC5=O)nc2)CC1 [Compound 1, 2′-((5-(4-methylpiperazin-1-yl)pyridin-2-yl)amino)-7′,8′-dihydro-6′H-spiro[cyclohexane-1,9′-pyrazino[1′,2′:1,5]pyrrolo[2,3-d]pyrimidin]-6′-one]",Beta,[1],0.388 h⁻¹
same,Gamma,[1],0.0502 h⁻¹
same,K31,[1],0.0692 h⁻¹
same,Cmax,"both sexes, human, plasma, intravenous, 96 mg/m2, Cohort 5, 96 mg/m^2, 3-compartment secondary (derived) parameter, six subjects, Mean, Median, read-out: Cmax",991 ng/mL
same,half-life,"both sexes, human, plasma, intravenous, 96 mg/m2, 96 mg/m^2, 3-compartment model, mean",14.2 h
same,half-life,"both, human, plasma, intravenous, […]2",14 h
